PMC11143257, “Atomistic mechanism of coupling between cytosolic sensor domain and selectivity filter in TREK K2P channels” (Nature Communications, 2024)
Substitutions are numbered along the chain they refer to.

Experiments:
WT hTREK-2 = test: Direct application of PKC inhibitor, oocytes; format: cell-based, human; conditions: oocytes expressing WT hTREK-2
Text: This study by Türkaydin and colleagues combines functional studies of TREK channels with MD simulations and proposes an explanation for the molecular mechanism of phosphorylation-mediated regulation of channel activity, and a general framework for how down-to-up transitions of TM4 is coupled to activation of the SF gate. Using elegant MTS-modification, phospho-mimetic mutagenesis, and norfluoxetine sensitivity experiment - and […]
TM4 increases channel opening which is a plausible explanation for the inverse inhibitory effect of phosphorylation of the extended M4 helix.
The molecular dynamics approaches are mostly outside of my expertise and so I cannot comment on the technical elements. However, the interaction network analysis supports previous models that upwards movement of TM4 is associated with opening of the SF gate and highlights previously identified and potential novel residues responsible. […]
results provide interesting advances which improve our understanding of TREK channel […]
We thank the reviewer for the positive evaluation of our work and the many helpful comments to improve the manuscript. The reviewer specific comments are addressed below:
- and this is an excellent opportunity to clarify some important outstanding questions in the […]
state. This is an interesting and important finding, which would help to explain TREK channel regulation in vivo. […]

hTREK-1 = test: Direct application of PKC inhibitor, HEK293 whole-cell; format: cell-based, human; conditions: 1.0 µM; HEK293 cells, whole-cell configuration; within 30 min; n = 6
Experimental: Further, we also tested the direct application of 1.0 µM of the PKC inhibitor BIM I to HEK293 cells (in whole-cell configuration) expressing hTREK-1. Similarly, under these conditions, TREK-1 channel currents were not altered within 30 min. (n = 6). Thus, it appears that under […]
of the PKC site. Unfortunately, it is not known which phosphatase mediates the dephosphorylation of the PKC site in TREK channels nor are pharmacological phosphatase activators known that could be used promote the dephosphorylation.
The interaction network analysis provides possible explanations for how TM4 movement is transduced to SF gate opening. As mentioned, this analysis highlights a number of residues […]
W326, R237 in Dong et al., 2015). The authors are well placed to determine whether mutation of these residues, in silico, destabilizes the down-state and to show how this might promote stabilization of the conductive SF. […]
through interaction network analysis and previous mutation studies, can aid in studying the conformational change from down- to up-state in the channel and how this is related to the conformational change in the SF. However, the timescale for the conformational movement in […]
2 channels. In only 3 out of 7 simulations, each lasting 3 μs, did we observe a complete transition from up to down. […]
well-suited for assessing the impact of mutations. […]

TREK-2* = target: T1, TREK-2* (Homo sapiens, UniProt P57789); test: Activation of truncated construct; format: cell-based; design: was truncated from WT and includes amino acids 67 - 355; expressed in transfected cells; host or cells: Xenopus laevis oocytes (cRNA injection, pFAW vector); conditions: comparable to WT, peer review file
T1 sequence (P57789 67-355 isoform P57789-4): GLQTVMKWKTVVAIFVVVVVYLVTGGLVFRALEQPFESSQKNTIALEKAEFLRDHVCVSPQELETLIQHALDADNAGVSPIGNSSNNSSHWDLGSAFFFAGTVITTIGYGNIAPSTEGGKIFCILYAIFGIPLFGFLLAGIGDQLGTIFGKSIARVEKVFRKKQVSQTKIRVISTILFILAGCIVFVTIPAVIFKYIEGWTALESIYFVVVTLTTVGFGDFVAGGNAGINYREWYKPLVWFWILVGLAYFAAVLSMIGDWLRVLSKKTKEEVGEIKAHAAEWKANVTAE
Text: page 27: Answer: We agree with the reviewer that applying statistical tests to our simulation data would enhance the confidence in interpreting some of the results. However, in this study, due to the relatively large size of the systems that require extensive simulation time, we were limited to conducting only five to seven independent simulation runs for each setup. According to the checklist and recommendations provided by Nature Journal (PMID: 36918708), a minimum of three simulations per condition is advisable. Given that we only have data from these limited simulation runs, conducting a p-test is challenging. Nonetheless, as we noted in the main text, in all 5 simulations of the down-state, we observed a robust conformational change at the S1 binding site. Conversely, in all five up-state simulations, the SF remained a conductive conformation. […] Minor comments: Are there any differences in function between full-length TREK-2 and the TREK-2* construct? […] 22

TREK-1 T318C = target: T2, TREK-1 T318C (Homo sapiens, UniProt O95069, T318C); test: MTS probe modification, inside-out patch-clamp; format: cell-based; conditions: MTS-ET+ 1 mM, symmetrical K+, -80 mV (Supplementary Fig. 2d)
T2 construct: expressed in transfected cells; host or cells: Xenopus laevis oocytes (cRNA injection), excised inside-out patches
T2 sequence (O95069 1-426 T318C): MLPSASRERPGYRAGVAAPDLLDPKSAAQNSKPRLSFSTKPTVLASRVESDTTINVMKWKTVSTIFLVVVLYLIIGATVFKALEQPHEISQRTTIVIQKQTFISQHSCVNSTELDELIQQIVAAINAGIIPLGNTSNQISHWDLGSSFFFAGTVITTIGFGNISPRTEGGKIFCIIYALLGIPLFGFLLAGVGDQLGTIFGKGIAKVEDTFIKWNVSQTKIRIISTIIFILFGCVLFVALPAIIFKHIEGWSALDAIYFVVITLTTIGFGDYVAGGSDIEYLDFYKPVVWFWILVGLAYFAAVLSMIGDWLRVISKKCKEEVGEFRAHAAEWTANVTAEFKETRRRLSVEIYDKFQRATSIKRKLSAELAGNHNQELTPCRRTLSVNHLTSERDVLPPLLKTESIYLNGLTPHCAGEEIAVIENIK
Experimental: (§1) First, we measured WT TREK-1, WT TRAAK and TREK-2^* channels without modifiable cysteine residues as references. […] Note, that patch integrity and channel regulation were tested with either 1 mM tetra-pentyl-ammonium (TPenA) and a short pHi activation step. Next, we conducted systematic cysteine scanning mutagenesis of the entire pCt and examined the effect of charged and aliphatic MTS probes.
(§2) Xenopus laevis oocytes were surgically removed from anesthetized adult females, treated with type II collagenase (Sigma-Aldrich/Merck, Germany) and manually defolliculated. A solution containing the K^+ channel-specific cRNA at a desired concentration was injected into Dumont stage V - VI oocytes and subsequently incubated at 17 °C in a solution containing (mM): 54 NaCl, […], 2.4 NaHCO3, 0.82 MgSO4 x 7 H2O, 0.41 CaCl2, 0.33 Ca(NO3)2 x 4 H2O and 7.5 TRIS (pH 7.4 adjusted with NaOH/HCl) for 1 - 7 days before use. Patch-clamp recordings in an inside-out configuration under voltage-clamp conditions were performed at room temperature (22 - 24 °C). Patch pipettes were made from thick-walled borosilicate glass GB 200TF-8P (Science Products, Germany), had resistances of 0.2 - 0.5 MΩ (tip diameter of 10 - 25 µm) and filled with a pipette solution (in mM): 120 KCl, 10 HEPES and 3.6 CaCl2 (pH 7.4 adjusted with KOH/HCl). Intracellular bath solutions and compounds were applied to the cytoplasmic side of excised patches for the various K^+ channels via a gravity flow multi-barrel pipette system. The intracellular solution had the following composition (in mM): 120 KCl, 10 HEPES, 2 EGTA, and 1 Pyrophosphate (pH adjusted with KOH/HCl). Currents were recorded with an EPC10 amplifier (HEKA electronics, Germany) and sampled at 10 kHz or higher and filtered with 3 kHz (-3 dB) or higher as appropriate for the sampling rate.
(§3) Tetra-pentyl-ammonium chloride (TPenA) was purchased from Merck (Sigma-Aldrich), prepared as 100 mM stocks in intracellular recording solution, stored at −20 °C and diluted to a final concentration in intracellular recording solution before measurements. Decyl-MethaneThioSulfonate (Decyl-MTS), (2-(trimethylammonium)ethyl)MethaneThioSulfonate bromide (MTS-ET^+) and Sodium (2-sulfonatoethyl)MethaneThioSulfonate (MTS-ES^-) were purchased from Toronto Research Chemicals. MTS-ET^+ was directly dissolved to the desired concentration of 1 mM in the intracellular recording solution before each experiment. MTS-ET^+ was used immediately after dilution for maximally 5 min. Decyl-MTS and […] were prepared as 10 - 100 mM stocks in DMSO and diluted to the desired concentration before the measurements.
(§4) The fold current increase (fold activation) of a ligand (decyl-MTS) was calculated from the following equation:1 FoldactivationFA=Iactivated/Ibasal with Iactivated represents the stable current level in the presence of 100 µM decyl-MTS and Ibasal the measured current before application of the MTS probe.

TREK-1 F325C = target: T3, TREK-1 F325C (Homo sapiens, UniProt O95069, F325C); test: MTS probe modification, inside-out patch-clamp; format: cell-based; conditions: MTS-ET+ 1 mM, symmetrical K+, -80 mV (Supplementary Fig. 2d)
T3 construct: expressed in transfected cells; host or cells: Xenopus laevis oocytes (cRNA injection), excised inside-out patches
T3 sequence (O95069 1-426 F325C): T2 sequence (O95069 1-426 T318C) with C318T, F325C
Experimental: as §1, §2, §3, §4

TREK-1 V322C = target: T4, TREK-1 V322C (Homo sapiens, UniProt O95069, V322C); test: MTS probe modification, inside-out patch-clamp; format: cell-based; conditions: MTS-ET+ 1 mM, symmetrical K+, -80 mV (Supplementary Fig. 2d)
T4 construct: expressed in transfected cells; host or cells: Xenopus laevis oocytes (cRNA injection), excised inside-out patches
T4 sequence (O95069 1-426 V322C): T2 sequence (O95069 1-426 T318C) with C318T, V322C
Experimental: as §1, §2, §3, §4

In the case of CN(C)CCCn1cc(C2=C(c3c[nH]c4ccccc34)C(=O)NC2=O)c2ccccc21 [BIM I, Bisindolylmaleimide I], the “effect on current” value (WT hTREK-2) is reported as “did not observe a current increase” and the “effect on TREK-1 channel currents” value (hTREK-1) is reported as “not altered”.
CCCCC/C=C\C/C=C\C/C=C\C/C=C\CCCC(=O)O [arachidonic acid] was tested, and the “activation” value (TREK-2*) was “activated”.
For “(2-(trimethylammonium)ethyl)MethaneThioSulfonate bromide [MTS-ET^+]”, the “effect of charged MTS probe on activity” value (TREK-1 T318C) was “channel inhibition”, the “effect of charged MTS probe on activity” value (TREK-1 F325C) was “channel inhibition” and the “effect of charged MTS probe on activity” value (TREK-1 V322C) was “channel inhibition”.
